Like-named read-outs stand apart in the source and are kept apart here.

The record followed here is patent US8309550B2, “Kinase inhibitors and their use as pharmaceutical agents” (Shanghai Genomics, Inc., priority 2011, dated 2012).

Test [1] has as its target T1, CDK1/cyclinB (Homo sapiens, UniProt P06493).
T1 construct: purchased Invitrogen PV3292
Briefly: Z'-LYTE kinase assay CDK1/cyclinB. It is filed as biochemical. In a few lines: (§1)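 Recombinant human kinases were run in a Z′-LYTE FRET assay. CDK1/cyclinB and CDK5/p35 were each used at 0.8 ng/reaction with Ser/Thr 12 peptide. Reactions ran 1 h at room temperature in HEPES pH 7.5 with 20 μM ATP, followed by 1 h development. IC50 came from sigmoid fits.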

In test [2] the target is T2, CDK2/cyclinA (Homo sapiens, UniProt P24941).
T2 construct: purchased Invitrogen PV3267
Nature of the test: Z'-LYTE kinase assay CDK2/cyclinA. It is filed as biochemical. In a few lines: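 This Z′-LYTE™ fluorescence assay measured inhibition of human CDK2/cyclinA. After the 1 hr kinase reaction, development buffer was added for another hour at room temperature, then stop buffer. The 445 nm/520 nm emission ratio, excited at 400 nm, was read on a VICTOR-3 Multilabel Reader and converted to phosphorylation. Compounds were prepared as 10 mM DMSO stocks.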

Test [3] addresses T3, CDK5/p35 (Homo sapiens, UniProt Q00535).
T3 construct: purchased Invitrogen PV3000
Nature of the test: Z'-LYTE kinase assay CDK5/p35. It is filed as biochemical. The essentials: as §1

Test [4] concerns the target T4, Aurora A (Homo sapiens, UniProt O14965).
T4 construct: purchased Invitrogen PV3612
T4 sequence (O14965 1-403): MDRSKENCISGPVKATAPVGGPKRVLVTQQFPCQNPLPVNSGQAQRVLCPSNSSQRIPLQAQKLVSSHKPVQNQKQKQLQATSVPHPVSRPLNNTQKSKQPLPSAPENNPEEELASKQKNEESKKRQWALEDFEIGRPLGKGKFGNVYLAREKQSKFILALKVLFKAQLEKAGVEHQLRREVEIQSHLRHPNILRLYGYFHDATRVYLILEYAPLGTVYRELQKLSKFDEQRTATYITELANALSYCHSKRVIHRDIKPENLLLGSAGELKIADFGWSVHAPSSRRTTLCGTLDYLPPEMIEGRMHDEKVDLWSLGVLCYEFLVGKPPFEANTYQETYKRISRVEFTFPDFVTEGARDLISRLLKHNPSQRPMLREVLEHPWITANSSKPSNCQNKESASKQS
Briefly: Z'-LYTE kinase assay Aurora A. The format is biochemical. The essentials: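 Aurora A inhibition was measured by Z′-LYTE™. After a one-hour kinase reaction at room temperature, development buffer was added for another hour, then stop buffer. A VICTOR-3 reader recorded the 445 nm/520 nm emission ratio with excitation at 400 nm. Phosphorylation was derived from this ratio, and IC50 was obtained by sigmoid fitting in Origin 6.0.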

For test [5], the target named is Aurora B (Homo sapiens, UniProt Q96GD4). Briefly: Kinase assay Aurora B (Table I). It is filed as biochemical.
Aurora B, sequence (Q96GD4 whole entry): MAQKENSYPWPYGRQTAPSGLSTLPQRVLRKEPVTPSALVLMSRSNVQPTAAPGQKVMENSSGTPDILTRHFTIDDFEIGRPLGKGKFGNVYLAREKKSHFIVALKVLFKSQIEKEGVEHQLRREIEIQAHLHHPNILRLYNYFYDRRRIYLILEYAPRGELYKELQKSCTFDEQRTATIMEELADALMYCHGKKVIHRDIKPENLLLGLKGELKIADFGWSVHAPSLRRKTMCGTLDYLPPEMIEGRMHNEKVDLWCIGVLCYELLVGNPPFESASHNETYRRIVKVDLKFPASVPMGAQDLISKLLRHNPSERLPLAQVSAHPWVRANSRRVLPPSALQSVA
Test [6] has as its system U2OS cells. Briefly: 72 h MTT cytotoxicity assay U2OS. It is filed as cell-based. The following applies: Homo sapiens. The source says: (§2) MIT cytotoxicity assay. The compounds of the invention were subjected to a standard cellular proliferation assay using human cell lines. HeLa cells (Human cervix adenocarcinoma cell line, ATCC NO, CCL-2); A549 cells (Human lung carcinoma cells line, ATCC NO, CCL-185); U2OS cells (Human osteosarcoma cell line, ATCC NO, HTB-96); Eca-109 cells (Human esophageal carcinoma cell line); HepG2 (Human hepatocellular liver carcinoma cell line, ATCC NO, HB-8065); K562 cells (Human chronic myelogenous leukemia cell line, ATCC NO, CCL-243); SK-MEL-28 (Human malignant melanoma cell line, ATCC NO, HTB-72); Molt-4 (Human acute lymphoblastic leukemia cell line, ATCC NO, CRL-1582); H460 (Human large cell lung cancer cell line, ATCC NO, HTB-177); MDA-MB-231 (Human breast adenocarcinoma cell line, ATCC NO, HTB-26); MCF7 (Human breast adenocarcinoma cell line, ATCC NO, HTB-22); ACHN (Human renal cell adenocarcinoma cell line, ATCC NO, CRL-1611); PC-3M (Human prostate adenocarcinoma cell line, ATCC NO CRL-1435); HL60 (Human acute promyelocytic leukemia cell line, ATCC NO, CCL-240); THP-1 (Human acute monocytic leukemia, ATCC NO, TIB-202); Jurkat (Human acute T cell leukemia cell line, ATCC NO, CRL-2063); HCT-116 (Human colorectal carcinoma cell line, ATCC NO, CCL-247); HT-29 (Human colorectal adenocarcinoma cell line, ATCC NO, HTB-38™); WI-38 (Human normal lung cell line, ATCC NO, CCL-75); MRC-5 (Human normal lung cell line, ATCC NO, CCL-171).
(§3) HepG2, MDA-MB-231, WI-38 and MRC-5 cells were obtained from Shanghai Institute of Cell Biology, Chinese Academy of Sciences (Shanghai 200031, China). A549, HeLa, K562, MCF7, ACHN, H460, U2OS, Eca-109, MCF7, HL60, THP-1, Jurkat, HCT-116, HT-29, PC-3M, SK-MEL-28, Molt-4, H460 and […] cells were purchased from ATCC (American Type Culture Collection, USA).
(§4) Standard 72 h MTT (thiazolye blue; 3-[4,5-dimethylthiazol-2-yl]-2,5-diphenyltetrazolium bromide) assays were performed. Briefly, the cell lines used in this study were recovered and cultured according to the conditions recommended. 4000 cells per well were seeded into 96-well plates according to doubling time and incubated overnight at 37° C. Compounds were prepared in DMSO and a ½ dilution series in 100 μl cell culture media, added to cells (in duplicates) with the final DMSO concentration of 0.025%, and incubated for 72 hrs at 37° C. MTT solution (5 mg/ml) was added at 10 μl per well and incubated in the dark at 37° C. for 4 hr. Culture medium and MTT solution was removed. MTT dye was solubilised with 100 μl per well of DMSO with agitation. Absorbance was read at 562 nm and data analyzed using Sigmoid curve-fitting software Origin 6.0 (MicroCal, LLC, USA) to determine IC50 value.

Test [7] has as its system H460-luc. Briefly: 72 h MTT cytotoxicity assay H460-luc. The format is cell-based. The settings on record: Homo sapiens.
Description: as §2, §3, §4
A general note: Formazan colour is commonly taken as a measure of viable cells.

Where [8] appears, read: read-out: Kinase inhibition, IC50 CDK1B.
Setting [9] is: read-out: Kinase inhibition, IC50 CDK2A.
The mark [10] stands for this setting: read-out: Kinase inhibition, IC50 CDK5/p35.
Where [11] appears, read: read-out: Kinase inhibition, IC50 Aurora A.
[12] abbreviates: read-out: Kinase inhibition, IC50 Aurora B.
[13] abbreviates: NCI-H460-Luc, H460-luc, 72 hrs, read-out: Cytotoxicity, MTT 72 hrs, IC50 H460-luc.
Setting [14] is: Table III, read-out: Target biochemical activity IC50 CDK1.
The mark [15] stands for this setting: Table III, read-out: Target biochemical activity IC50 CDK2.
[16] abbreviates: Table III, read-out: Target biochemical activity IC50 CDK5.
Where [17] appears, read: Table III, read-out: Target biochemical activity IC50 Aurora A.
[18] abbreviates: Table III, read-out: Target biochemical activity IC50 Aurora B.
Where [19] appears, read: H460, Table III, read-out: Cellular effect in mammalian cells IC50 H460.

T1 sequence (P06493 whole entry): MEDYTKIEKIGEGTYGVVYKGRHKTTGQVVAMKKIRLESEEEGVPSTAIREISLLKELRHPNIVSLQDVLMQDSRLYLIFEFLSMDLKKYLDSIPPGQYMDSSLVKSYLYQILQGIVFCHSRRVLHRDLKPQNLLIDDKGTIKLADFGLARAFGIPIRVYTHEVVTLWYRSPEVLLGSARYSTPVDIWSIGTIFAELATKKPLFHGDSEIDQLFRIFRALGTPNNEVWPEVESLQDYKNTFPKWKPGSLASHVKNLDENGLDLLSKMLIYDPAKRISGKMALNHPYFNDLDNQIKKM
T1 sequence (P14635 whole entry partner): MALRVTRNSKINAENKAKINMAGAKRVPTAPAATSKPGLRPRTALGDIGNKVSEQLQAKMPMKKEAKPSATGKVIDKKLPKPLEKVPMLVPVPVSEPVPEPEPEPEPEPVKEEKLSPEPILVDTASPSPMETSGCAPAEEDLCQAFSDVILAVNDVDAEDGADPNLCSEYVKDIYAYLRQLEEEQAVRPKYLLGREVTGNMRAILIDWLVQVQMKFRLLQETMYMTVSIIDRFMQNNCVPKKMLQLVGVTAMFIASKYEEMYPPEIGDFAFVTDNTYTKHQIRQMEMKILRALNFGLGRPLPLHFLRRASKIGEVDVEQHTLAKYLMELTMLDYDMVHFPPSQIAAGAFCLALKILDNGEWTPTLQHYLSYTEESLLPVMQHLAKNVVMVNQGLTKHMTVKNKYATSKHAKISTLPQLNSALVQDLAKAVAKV
T3 sequence (Q00535 whole entry): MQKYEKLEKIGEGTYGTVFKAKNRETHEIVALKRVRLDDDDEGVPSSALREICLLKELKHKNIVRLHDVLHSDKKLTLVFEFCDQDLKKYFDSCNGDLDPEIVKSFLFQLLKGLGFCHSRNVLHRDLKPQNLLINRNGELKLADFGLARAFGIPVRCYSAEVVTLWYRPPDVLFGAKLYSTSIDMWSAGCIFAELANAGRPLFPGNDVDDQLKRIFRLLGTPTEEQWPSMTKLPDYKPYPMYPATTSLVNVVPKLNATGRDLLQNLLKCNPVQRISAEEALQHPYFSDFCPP
T3 sequence (Q15078 whole entry partner): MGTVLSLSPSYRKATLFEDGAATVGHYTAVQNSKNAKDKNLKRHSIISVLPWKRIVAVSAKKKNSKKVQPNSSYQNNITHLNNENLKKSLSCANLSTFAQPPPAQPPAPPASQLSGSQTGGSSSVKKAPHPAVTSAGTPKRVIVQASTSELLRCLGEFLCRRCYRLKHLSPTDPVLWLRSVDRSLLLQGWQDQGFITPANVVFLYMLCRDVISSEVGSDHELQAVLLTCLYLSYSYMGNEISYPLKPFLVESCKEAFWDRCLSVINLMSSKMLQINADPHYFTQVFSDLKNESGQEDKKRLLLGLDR

On to `CCCn1cc(-c2ccnc(Nc3ccc(O)cc3)n2)c2cccnc21` [Compound 15, 4-(4-(1-Propyl-1H-pyrrolo[2,3-b]pyridin-3-yl)pyrimidin-2-ylamino)phenol], for which the IC50 is 1670 nM in test [1] (setting [8]); 28 nM in test [2] (setting [9]); 2240 nM in test [3] (setting [10]); 210 nM in test [4] (setting [11]); 670 nM in test [5] (setting [12]); 7440 nM in test [6]. In addition, the IC50 in test [7] (setting [13]) amounted to 4980 nM.
Turning to `CCCn1cc(-c2ccnc(Nc3cccc(O)c3)n2)c2cccnc21` [Compound 16, 3-(4-(1-Propyl-1H-pyrrolo[2,3-b]pyridin-3-yl)pyrimidin-2-ylamino)phenol], the IC50 in test [1] (setting [8]) is 1360 nM; in test [2] (setting [9]), 6 nM; in test [3] (setting [10]), 2320 nM; in test [4] (setting [11]) it was above 10000 nM; in test [5] (setting [12]) it was 1250 nM; in test [6], 7420 nM. For the same molecule, in test [7] (setting [13]), the IC50 came out at 4060 nM.
On to `CCn1cc(-c2ccnc(Nc3cccc(S(N)(=O)=O)c3)n2)c2cccnc21` [Compound 18, 3-(4-(1-Ethyl-1H-pyrrolo[2,3-b]pyridin-3-yl)pyrimidin-2-ylamino)benzenesulfonamide], for which the IC50 in test [1] (setting [14]) is 624 nM; in test [1] (setting [8]), 624 nM; in test [2] (setting [15]), 3 nM; in test [2] (setting [9]) it was 3 nM; in test [3] (setting [16]) it was 271 nM; in test [3] (setting [10]) it was 271 nM. Also, the IC50 in test [4] (setting [17]) came to 30 nM; in test [4] (setting [11]), 30 nM; in test [5] (setting [18]), 700 nM; in test [5] (setting [12]), 700 nM; in test [6], 3070 nM; in test [7] (setting [13]), 1270 nM. The IC50 in test [7] (setting [19]) is 1270 nM.
With `CCn1cc(-c2ccnc(Nc3cccc(C#N)c3)n2)c2cccnc21` [Compound 20, 3-(4-(1-Ethyl-1H-pyrrolo[2,3-b]pyridin-3-yl)pyrimidin-2-ylamino)benzonitrile], the IC50 in test [1] (setting [8]) was 7010 nM; in test [2] (setting [9]) it was 3480 nM; in test [3] (setting [10]), 4610 nM; in test [4] (setting [11]) it was 6990 nM; in test [5] (setting [12]), above 10000 nM; in test [6], above 10000 nM. Besides, the IC50 in test [7] (setting [13]) is above 10000 nM.
For the molecule `CCCn1cc(-c2ccnc(Nc3cccc(S(N)(=O)=O)c3)n2)c2cccnc21` [Compound 22, 3-(4-(1-Propyl-1H-pyrrolo[2,3-b]pyridin-3-yl)pyrimidin-2-ylamino)benzenesulfonamide], the IC50 worked out at 450 nM in test [1] (setting [8]); 190 nM in test [2] (setting [9]); 400 nM in test [3] (setting [10]); 8 nM in test [4] (setting [11]); 3600 nM in test [5] (setting [12]); 2130 nM in test [6]. For the same molecule, the IC50 in test [7] (setting [13]) worked out at 1110 nM.
For the molecule `CCCn1cc(-c2ccnc(Nc3ccc(C)c(S(=O)(=O)N4CCOCC4)c3)n2)c2cccnc21` [Compound 24, N-(4-Methyl-3-(morpholinosulfonyl)phenyl)-4-(1-propyl-1H-pyrrolo[2,3-b]pyridin-3-yl)pyrimidin-2-amine], the IC50 in test [1] (setting [8]) is 5190 nM; in test [2] (setting [9]), 4580 nM; in test [3] (setting [10]) it was 8900 nM; in test [4] (setting [11]), 9440 nM; in test [5] (setting [12]), at least 10000 nM; in test [6], 3300 nM. Besides, the IC50 in test [7] (setting [13]) turned out to be 1410 nM.
Turning to `CCCn1cc(-c2ccnc(Nc3cccc(S(N)(=O)=O)c3)n2)c2nc(Cl)cc(C)c21` [Compound 42, 3-(4-(5-Chloro-7-methyl-1-propyl-1H-pyrrolo[3,2-b]pyridin-3-yl)pyrimidin-2-ylamino)benzenesulfonamide], the IC50 was 6840 nM in test [1] (setting [8]); above 10000 nM in test [2] (setting [9]); above 10000 nM in test [3] (setting [10]); 98 nM in test [4] (setting [11]); 190 nM in test [5] (setting [12]); 1860 nM in test [6]. Besides, in test [7] (setting [13]), the IC50 stood at 2000 nM.
`CCCn1cc(-c2ccnc(Nc3cccc(S(N)(=O)=O)c3)n2)c2ccnc(Cl)c21` [Compound 96, 3-(4-(7-chloro-1-propyl-1H-pyrrolo[2,3-c]pyridin-3-yl)pyrimidin-2-ylamino)benzenesulfonamide]: the IC50 in test [1] (setting [8]) was below 0.1 nM; in test [2] (setting [9]), below 0.1 nM; in test [3] (setting [10]) it was 20 nM; in test [4] (setting [11]) it was 800 nM; in test [5] (setting [12]), above 10000 nM; in test [6] it was 230 nM. Moreover, the IC50 in test [7] (setting [13]) is 260 nM.
On to `CCCn1cc(-c2ccnc(Nc3cccc(S(N)(=O)=O)c3)n2)c2ccncc21` [SG51], for which the IC50 in test [1] (setting [14]) was 0.4 nM; in test [2] (setting [15]), 0.5 nM; in test [3] (setting [16]) it was 0.5 nM; in test [4] (setting [17]) it was 50 nM; in test [5] (setting [18]) it was 59 nM; in test [7] (setting [19]) it was below 100 nM.
Regarding `CCCn1cc(-c2ccnc(Nc3ccc(C)c(S(=O)(=O)N4CCOCC4)c3)n2)c2ccncc21` [SG52], the IC50 amounted to 70 nM in test [1] (setting [14]); 30 nM in test [2] (setting [15]); 25 nM in test [3] (setting [16]); 1650 nM in test [4] (setting [17]); 1000 nM in test [5] (setting [18]); 220 nM in test [7] (setting [19]).
Regarding `CCCn1cc(-c2ccnc(Nc3cccc(S(N)(=O)=O)c3)n2)c2nc(Cl)cc(C)c21` [SG53], the IC50 in test [1] (setting [14]) is 6840 nM; in test [2] (setting [15]) it was above 10000 nM; in test [3] (setting [16]), above 10000 nM; in test [4] (setting [17]), 98 nM; in test [5] (setting [18]) it was 190 nM; in test [7] (setting [19]), 2000 nM.
In the case of `CCCn1cc(-c2ccnc(Nc3ccc(S(N)(=O)=O)cc3)n2)c2nc(Cl)cc(C)c21` [SG54], the IC50 in test [1] (setting [14]) is above 10000 nM; in test [2] (setting [15]), 1670 nM; in test [3] (setting [16]) it was above 10000 nM; in test [4] (setting [17]), 620 nM; in test [5] (setting [18]) it was 320 nM; in test [7] (setting [19]), 1030 nM.
